This note sets out measurements from US8283367B2, “Proteasome inhibitors and methods of using the same” (Cephalon, Inc., priority 2005, dated 2012).

`CC(C)C[C@H](NC(=O)[C@@H](NC(=O)c1cc(-c2ccccc2)n[nH]1)[C@@H](C)O)B(O)O` [K.2.13, Boronic acid, [(1R)-1-[[(2S,3R)-3-hydroxy-2-[(5-phenyl-2H-pyrazole-3-carbonyl)amino]-1-oxobutyl]amino]-3-methylbutyl]] showed a melting point of 232 to 236 °C. The result for `Cc1ccc(C(=O)NC[C@H](NC(=O)c2cccc(-c3cccs3)n2)C(=O)N[C@@H](CC(C)C)B(O)O)cc1` [L.2.21] reads 158 to 160 °C; that for `Cc1ccc(C(=O)NC[C@H](NC(=O)c2cccnc2)C(=O)N[C@@H](CC(C)C)B(O)O)cc1` [L.2.4, Boronic acid, [(1R)-1-[[(2 S)-3-[(4-methylbenzoyl)amino]-2-[(pyridine-3-carbonyl)amino]-1-oxopropyl]amino]-3-methyibutyl]], 220 to 222 °C; that for `CC(C)C[C@H](NC(=O)[C@@H](NC(=O)c1cncc(-c2ccccc2)c1)[C@@H](C)O)B1O[C@@H]2C[C@@H]3C[C@@H](C3(C)C)[C@]2(C)O1` [H.2.6, 5-Phenyl-pyridine-3-carboxamide, N-[(1S,2R)-1-[[[(1R)-1-[(3aS,4S,6S,7aR)-hexahydro-3a,5,5-trimethyl-4,6-methano-1,3,2-benzodioxaborol-2-yl]-3-methylbutyl]amino]carbonyl]-2-hydroxypropyl]], 135 to 140 °C. With `Cc1ccc(C(=O)NC[C@H](NC(=O)c2ccc3ccccc3n2)C(=O)N[C@@H](CC(C)C)B(O)O)cc1` [L.2.5, Boronic acid, [(1R)-1-[[(2 S)-3-[(4-methylbenzoyl)amino]-2-[(quinoline-2-carbonyl)amino]-1-oxopropyl]amino]-3-methylbutyl]] the figure was 235 to 237 °C; with `CC(C)C[C@H](NC(=O)[C@@H](NC(=O)c1ccc(-c2ccccc2)cn1)[C@@H](C)O)B(O)O` [K.2.7, Boronic acid, [(1R)-1-[[(2S,3R)-3-hydroxy-2-[(5-phenyl-pyridine-2-carbonyl)amino]-1-oxobutyl]amino]-3-methylbutyl]], 190 to 195 °C.
